Reference: patent publication US20250295646A1, “METHODS OF USE OF T-TYPE CALCIUM CHANNEL MODULATORS” (Praxis Precision Medicines, Inc., priority 2022, published 2025)

System: adult patients with essential tremor
Test: Example 16: accelerometer-based (Kinesia ONE) TETRAS upper limb score
Type: in vivo, human
Details: Part B Randomized Withdrawal; for Accelerometer-Based Upper Limb Score, Change from Baseline, Mean (SD) / Accelerometer-Based Upper Limb Score, Change from Baseline, Median / Accelerometer-Based Upper Limb Score, observed, Mean (SD) / Accelerometer-Based Upper Limb Score, observed, Median / Percentage Change from Baseline in Tremor Amplitude, Mean (SD) / Percentage Change from Baseline in Tremor Amplitude, Median / Accelerometer-Based Upper Limb Score, Change from Randomization, LS Mean (SE) / Accelerometer-Based Upper Limb Score, Change from Randomization, Mean (SD) / Accelerometer-Based Upper Limb Score, Change from Randomization, Median / LS Mean Percentage Change in Tremor Amplitude (from Randomization) / Percentage Change from Randomization in Tremor Amplitude, Mean (SD) / Percentage Change from Randomization in Tremor Amplitude, Median: Formula (I) group (N = 6)
From the text: Accelerometer (Kinesia ONE) TETRAS assessments were generally consistent with those conducted at the clinic. Accelerometer upper limb score values are summarized for Part A, the open-label titration phase of Part B, and the randomized withdrawal phase of Part B in Table 37, Table 38, and Table 39, respectively

[1] = Day 42 Post - dose (Randomization Baseline)

Structure (SMILES): CC(C)(C)NC(=O)CN1CCC(CNC(=O)c2cc(F)cc(Cl)c2)CC1 [compound of formula (I), N-((1-(2-(tert-butylamino)-2-oxoethyl)piperidin-4-yl)methyl)-3-chloro-5-fluorobenzamide]
- Accelerometer-Based Upper Limb Score, Change from Baseline, Mean (SD) (Day 1, Post - dose): −0.08 (1.710)
- Accelerometer-Based Upper Limb Score, Change from Baseline, Median (Day 1, Post - dose): −0.78
- Accelerometer-Based Upper Limb Score, observed, Mean (SD) (Day 1, Post - dose): 9.98 (2.321)
- Accelerometer-Based Upper Limb Score, observed, Median (Day 1, Post - dose): 10.78
- Percentage Change from Baseline in Tremor Amplitude, Mean (SD) (Day 1, Post - dose): −2.18 (27.539) %
- Percentage Change from Baseline in Tremor Amplitude, Median (Day 1, Post - dose): −13.59%
- Accelerometer-Based Upper Limb Score, Change from Baseline, Mean (SD) (Day 7): −0.79 (1.542)
- Accelerometer-Based Upper Limb Score, Change from Baseline, Median (Day 7): −1.20
- Accelerometer-Based Upper Limb Score, observed, Mean (SD) (Day 7): 9.55 (2.774)
- Accelerometer-Based Upper Limb Score, observed, Median (Day 7): 10.15
- Percentage Change from Baseline in Tremor Amplitude, Mean (SD) (Day 7): −12.59 (25.197) %
- Percentage Change from Baseline in Tremor Amplitude, Median (Day 7): −19.95%
- Accelerometer-Based Upper Limb Score, Change from Baseline, Mean (SD) (Day 21): −0.56 (1.273)
- Accelerometer-Based Upper Limb Score, Change from Baseline, Median (Day 21): −0.55
- Accelerometer-Based Upper Limb Score, observed, Mean (SD) (Day 21): 9.50 (2.760)
- Accelerometer-Based Upper Limb Score, observed, Median (Day 21): 9.88
- Percentage Change from Baseline in Tremor Amplitude, Mean (SD) (Day 21): −8.75 (21.102) %
- Percentage Change from Baseline in Tremor Amplitude, Median (Day 21): −9.68%
- Accelerometer-Based Upper Limb Score, Change from Baseline, Mean (SD) (Day 42, Post - dose): −0.68 (1.718)
- Accelerometer-Based Upper Limb Score, Change from Baseline, Median (Day 42, Post - dose): −0.23
- Percentage Change from Baseline in Tremor Amplitude, Mean (SD) (Day 42, Post - dose): −9.46 (26.746) %
- Percentage Change from Baseline in Tremor Amplitude, Median (Day 42, Post - dose): −3.87%
- Accelerometer-Based Upper Limb Score, Change from Baseline, Mean (SD) (Day 42, Pre - dose): −0.73 (1.948)
- Accelerometer-Based Upper Limb Score, Change from Baseline, Median (Day 42, Pre - dose): −0.98
- Accelerometer-Based Upper Limb Score, observed, Mean (SD) (Day 42, Pre - dose): 9.33 (2.645)
- Accelerometer-Based Upper Limb Score, observed, Median (Day 42, Pre - dose): 10.40
- Percentage Change from Baseline in Tremor Amplitude, Mean (SD) (Day 42, Pre - dose): −10.75 (29.656) %
- Percentage Change from Baseline in Tremor Amplitude, Median (Day 42, Pre - dose): −17.06%
- Accelerometer-Based Upper Limb Score, observed, Mean (SD) [1]: 9.38 (2.242)
- Accelerometer-Based Upper Limb Score, observed, Median [1]: 9.50
- Accelerometer-Based Upper Limb Score, Change from Baseline, Mean (SD) (Day 56): −0.55 (3.145)
- Accelerometer-Based Upper Limb Score, Change from Baseline, Median (Day 56): 0.62
- Accelerometer-Based Upper Limb Score, Change from Randomization, LS Mean (SE) (Day 56): 0.120 (0.9528)
- Accelerometer-Based Upper Limb Score, Change from Randomization, Mean (SD) (Day 56): 0.13 (1.495)
- Accelerometer-Based Upper Limb Score, Change from Randomization, Median (Day 56): 0.70
- Accelerometer-Based Upper Limb Score, observed, Mean (SD) (Day 56): 9.51 (2.810)
- Accelerometer-Based Upper Limb Score, observed, Median (Day 56): 9.75
- LS Mean Percentage Change in Tremor Amplitude (from Randomization) (Day 56): 2.3%
- Percentage Change from Baseline in Tremor Amplitude, Mean (SD) (Day 56): −4.53 (43.487) %
- Percentage Change from Baseline in Tremor Amplitude, Median (Day 56): 9.78%
- Percentage Change from Randomization in Tremor Amplitude, Mean (SD) (Day 56): 2.74 (24.404) %
- Percentage Change from Randomization in Tremor Amplitude, Median (Day 56): 12.37%
- Accelerometer-Based Upper Limb Score, Change from Baseline, Mean (SD) (Day 70): 1.30 (2.932)
- Accelerometer-Based Upper Limb Score, Change from Baseline, Median (Day 70): 0.35
- Accelerometer-Based Upper Limb Score, Change from Randomization, LS Mean (SE) (Day 70): 2.482 (1.0202)
- Accelerometer-Based Upper Limb Score, Change from Randomization, Mean (SD) (Day 70): 2.34 (2.050)
- Accelerometer-Based Upper Limb Score, Change from Randomization, Median (Day 70): 1.85
- Accelerometer-Based Upper Limb Score, observed, Mean (SD) (Day 70): 11.33 (2.653)
- Accelerometer-Based Upper Limb Score, observed, Median (Day 70): 12.40
- LS Mean Percentage Change in Tremor Amplitude (from Randomization) (Day 70): 37.9%
- Percentage Change from Baseline in Tremor Amplitude, Mean (SD) (Day 70): 14.62 (35.044) %
- Percentage Change from Baseline in Tremor Amplitude, Median (Day 70): 6.50%
- Percentage Change from Randomization in Tremor Amplitude, Mean (SD) (Day 70): 32.71 (20.891) %
- Percentage Change from Randomization in Tremor Amplitude, Median (Day 70): 29.88%
- LS Mean (SE) for Difference (Formula (I) - Placebo), change from Randomization in accelerometer-based upper limb score (Day 56): −2.227 (1.4135)
- LS Mean Percentage Change Difference (Formula (I) - Placebo) (Day 56): −34.0%
- LS Mean (SE) for Difference (Formula (I) - Placebo), change from Randomization in accelerometer-based upper limb score (Day 70): −0.356 (1.4667)
- LS Mean Percentage Change Difference (Formula (I) - Placebo) (Day 70): −4.1%
